The text below walks through data of patent US20240228537A1, “BLOCK COPOLYPEPTIDES AND USE THEREOF” (National Cheng Kung University, priority 2023, published 2024).

For one data set, the system named is LL2 tumor. As to the kind of experiment: Murine syngeneic LL2 lung tumor model. In kind it is in vivo. As to conditions: LL2 tumor-bearing mice.
A further data set concerns caspase-3, and PARP. As to the kind of experiment: Immunoblot analysis in H1299 cells. The conditions noted are these: H1299, 24 h. In kind it is cell-based. The protocol: (§1) In the present disclosure, E-cadherin is one of the crucial molecules in cell-cell adhesion, participating in cancer progression.
(§2) The immunoblot analysis was conducted by treating H1299 cells with copolypeptides (4 μM) in the presence or absence of cisplatin (5 μM) for 24 h, followed by extraction using RIPA Lysis and Extraction Buffer (Thermo Fisher Scientific) and then separation by using 8% SDS-PAGE. Upon transferring onto NC membranes (0.22 μm) blocked in 5% fat-free dry milk, the proteins were incubated with primary antibodies against E-cadherin, caspase-3, poly(ADP-ribose) polymerase (PARP), and β-actin, followed by incubation with their appropriate secondary antibodies. An Immobilon Western Chemiluminescent HRP Substrate kit (Merck) was used to form visualized protein bands and the intensities of the protein bands were quantified using the Image J software (Image Processing and Analysis in Java) by normalizing to that of β-actin.

In a further data set the test system is E-cadherin. As to the kind of experiment: Immunoblot analysis in H1299 cells. It counts as cell-based. As to conditions: H1299, 24 h. The protocol:
as §1, §2
In general terms: A western blot detects proteins with antibodies after separation by electrophoresis.

Data set [1] is described as follows: Secondary conformation by circular dichroism (BeStSel fit). As to conditions: CD, 0.1 mg mL^−1 in DI water, neutral condition. It counts as physicochemical. On the procedure: The BeStSel software (Beta Structure Selection) was used to compute the percentages of peptide chain conformation by fitting the CD spectra.
The MALDI-TOF MS spectrum of the side-chain protected peptide was recorded in the reflection mode of a MALDI-TOF spectrometer (Bruker Autoflex III TOF/TOF). […] For CD measurements, the concentration of peptide samples in DI water was 0.1 mg mL^−1. SAXS patterns of peptide solutions were recorded on a Bruker NanoSTAR U diffractometer with controlled voltage 45 kV and current 650 μA at room temperature under 4×10^−1 torr. The critical aggregation concentration (cac) of peptides was determined by measuring the pyrene emission spectra of various peptide solutions with an integration time of 1.0 sec using a Hitachi FL-4500 fluorescence spectrophotometer.

Data set [2] has as its system H1299 cells. In words: Membrane staining with 1,1′-diethyl-4,4′-carbocyanine iodide. In kind it is cell-based. As to conditions: H1299, 4 μM, 6 h.
The test system of another data set is A549 cells. Described as above. It counts as cell-based. The conditions noted are these: A549, 4 μM, 6 h.
The test system of data set [3] is H1299 cells. In words: Cytotoxicity, CCK-8 assay. The conditions noted are these: H1299, linear copolypeptides, 0 to 100 μM. It counts as cell-based. On the procedure:
The cytotoxicity of copolypeptides at various concentrations or in combination with cisplatin (5 μM) was evaluated by incubating with A549, BEAS-2B, and H1299 cells (5×10^3 cells/well) in 96-well plates for 24 h using 10% FBS DMEM as the medium. After adding CCK-8 reagent (Targetmol) dissolved in serum-free medium, the well plates were incubated at 37° C. for 1 h. Upon transferring the medium to fresh 96-well plates, the absorbance of each well was measured at 450 nm using a Microplate Spectrophotometer (BioTek). The percentages of viable cells were calculated by the below equation:
Cell viability (%)=(Absorbancetest cell−Absorbanceblank)/(Absorbancecontrol cell−Absorbanceblank)×100
(In general: Tetrazolium dyes change colour on reduction, which living cells bring about.)

In data set [4] the test system is H1299 (p53-deficient) cells. In words: Transfection efficiency of copolypeptides/pDNA polyplexes. It counts as cell-based. The conditions noted are these: H1299, relative to lipofectamine 2000. The source says:
LysmBnCys5 copolypeptides (m=5, 10, and 15, i.e., SEQ ID NOs: 2, 5, and 3)) efficiently carried p53 gene (pcDNA3 p53 WT plasmid) into H1299 (p53-deficient) cells and enhanced chemotherapeutic treatment. […] Improved transfection efficiency was mainly attributed to optimal polyplex stability, determined by peptide charge density and rigidity. […] Moreover, treatment with both LysmBnCys5/p53 gene vector and cisplatin extended the survival rates of tumor-bearing mice.
FIGS. 22A-22B are results showing the p53 gene transfection efficiencies of various star-shaped copolypeptides to H1299 cells.
5.0 μM copolypeptides or 4.0 μL lipofectamine 2000 (Thermo Fisher Scientific) were mixed with 4.0 μg of plasmid DNA (pEGFP-C, Clontech) in 1 mL serum-free DMEM and left standing for 20 min. After cell concentration reached 2×10^5 cells/well in 6-well plates, the culture medium was replaced with 1 mL copolypeptides/DNA complexes (polyplexes) and incubated for 6 h. […] Green fluorescent protein (GFP) expression of transfected cells was examined under an inverted fluorescence microscope (IX71, Olympus). Quantitative evaluation of the transfection efficiency was also conducted using a flow cytometer (BD Biosciences). […] Transfection efficiency was then calculated as the percentage of cells expressing GFP, with the fluorescence of 2×10^4 cells evaluated by flow cytometry.

Description for LL2 tumor: Briefly, LL2 cells that had been transfected with the luciferase reporter gene were inoculated subcutaneously into C57BL/6 mice.
LL2 cells (5×10^5) expressing a luciferase reporter were inoculated subcutaneously into the backs of C57BL/6 mice, as a lung cancer animal model. After 7 days, saline control or copolypeptides were injected intratumorally to start the beginning of the timeline (day zero). […] Tumor growth, body weight, and survival were closely monitored. Tumor volume was calculated using the following equation: (length of tumor)×(width of tumor)^2×0.45 by measuring the tumors in two perpendicular axes with a tissue caliper. Once the tumor volume reached 2,000 mm^3, the mice were sacrificed and subsequently recorded as dead. […] On day 12, mice were intraperitoneally injected with D-luciferin potassium salt (200 μL, 10 mg/mL, Thermo Fisher Scientific), followed by anesthesia with 2% isoflurane in order to perform in vivo bioluminescence imaging. An IVIS-200 Perkin Elmer system with its integrated acquisition and analysis software (Living Image V. 2.50) was performed to quantify the said signals. On day 32, an optical microscope was used to examine the number of pulmonary metastatic nodules.

As to `N.N.[Cl][Pt][Cl]` [cisplatin], in the data set with LL2 tumor, the body weight loss entry is reported as “weight loss”.

For the molecule LLLLLCCCCC [Lys5Cys5], in the data set with caspase-3, and PARP, the “caspase-3 and PARP expression” value is “triggered caspase-3, and PARP expression significantly”. For the same molecule, the E-cadherin expression entry in the data set on E-cadherin was “reduced E-cadherin expression”. Moreover, in data set [1], the “Random coil (%)” value came out at 32.0% and the “ß-sheet/turn (%)” value was determined as 68.0%. In addition, in the data set on H1299 cells [2], the “membrane staining with 1,1′-diethyl-4,4′-carbocyanine iodide” value was “not”. Moreover, the “membrane staining with 1,1′-diethyl-4,4′-carbocyanine iodide” value in the data set with A549 cells is reported as “not”.

As for “Lys10BnCys5: poly-L-lysine-block-poly-S-benzyl-L-cysteine, 10 and 5 residues”, the cell viability result in the data set on H1299 cells [3] is on record as “cell viability decreased with increasing concentration”.

“Lys15BnCys5: poly-L-lysine-block-poly-S-benzyl-L-cysteine, 15 and 5 residues”: in data set [4], the transfection efficiency result was “almost equivalent to that using lipofectamine 2000”. Also, in the data set on H1299 cells [3], the cell viability result is reported as “cell viability decreased with increasing concentration”.

poly-L-guanidinylated lysine [PLGL15]: the cell viability result in the data set with H1299 cells [3] is reported as “cell viability decreased with increasing concentration”.

Consider “poly-L-lysine (LLLLLLLLLLLLLLL) [PLL15, poly-L-lysine, 15 residues]”, for which the cell viability result in the data set on H1299 cells [3] is recorded as “cell viability decreased with increasing concentration”.
